Reference: ChEMBL document CHEMBL1144705, “Erythrina alkaloids and a pterocarpan from the bark of Erythrina subumbrans” (J Nat Prod, 2008)
In brackets after ≈: the same amount, converted by molar mass. Activity calls are given as the source filed them. The calls are words filed in the database; no cut-off is given here.

How the values were obtained:
[1] = tested on: Plasmodium falciparum; experiment: Antimalarial activity against multidrug-resistant Plasmodium falciparum K1 by microculture radioisotope assay; format: functional, organism-based
[2] = tested on: Mycobacterium tuberculosis; experiment: Antimycobacterial activity against Mycobacterium tuberculosis H37Ra by Alamar blue assay; format: functional
[3] = tested on: KB; experiment: Cytotoxicity against human KB cells; format: functional, cell-based
[4] = tested on: BC; experiment: (§1) Cytotoxicity against human BC cells; format: functional, cell-based
[5] = tested on: NCI-H187; experiment: Cytotoxicity against human NCI-H187 cells; format: functional, cell-based
[6] = as §1; format: functional, cell-based

SMILES | Activity [1] | Activity [2] | Activity [3] | Activity [4] | Activity [5] | MIC [2] [mg/L] | IC50 [3] [mg/L] | IC50 [6] [mg/L] | IC50 [5] [mg/L] | IC50 [1] [mg/L]
CO[C@@H]1C[C@@]23C(=C[C@H]1O)CCN2C(=O)C(=O)c1cc2c(cc13)OCO2 | inactive | inactive | inactive | inactive | inactive |  |  |  |  | 
COc1c(CC=C(C)C)c(O)cc2c1[C@@H]1Oc3c(ccc(O)c3CC=C(C)C)[C@@H]1CO2 |  |  |  |  |  | 50 (≈ 118 µM) | 7.6 (≈ 18 µM) | 7.6 (≈ 18 µM) | 7.6 (≈ 18 µM) | 
COc1cc2c(cc1OC)[C@]13C[C@@H](OC)[C@H](O)C=C1CCN3C(=O)C2=O | inactive | inactive | inactive | inactive | inactive |  |  |  |  | 
CC(C)=CCc1cc([C@@H]2CC(=O)c3c(O)cc(O)cc3O2)cc(CC=C(C)C)c1O [ABYSSINONE V] |  |  |  |  |  | 100 (≈ 245 µM) |  |  |  | 7 (≈ 17.1 µM)
CC(C)=CCc1cc([C@@H]2CC(=O)c3c(O)cc(O)c(CC=C(C)C)c3O2)ccc1O [LESPEDEZAFLAVANONE B] |  |  |  |  |  | 100 (≈ 245 µM) | 7.6 (≈ 18.6 µM) | 7.6 (≈ 18.6 µM) | 7.6 (≈ 18.6 µM) | 3.7 (≈ 9.06 µM)
COc1ccc2c(c1)OC[C@@]1(O)c3ccc4c(c3O[C@@H]21)C[C@H](O)C(C)(C)O4 [ERYVARIN A] |  |  |  |  |  | 100 (≈ 270 µM) |  |  |  | 
